The target of one experiment is T1, α7 nAChR Subtype (Rattus norvegicus, UniProt Q05941).
T1 construct: The hippocampus was removed and placed in 10 volumes (weight:volume) of ice-cold preparative buffer; from tissue; host or cells: rat hippocampus membranes
Nature of the experiment: Radioligand binding ([3H]MLA) at α7 nAChR subtype, rat hippocampus membranes; HTS at 5 μM. Conditions: 5 μM compound, 5 nM 3H-MLA; read-out: α7 high throughput screening (HTS) binding. As for the experimental part:
Rats (female, Sprague-Dawley), weighing 150-250 g, were maintained on a 12 h light/dark cycle and were allowed free access to water and food supplied by PMI Nutrition International, Inc. Animals were anesthetized with 70% CO2, then decapitated. Brains were removed and placed on an ice-cold platform. The hippocampus was removed and placed in 10 volumes (weight:volume) of ice-cold preparative buffer (137 mM NaCl, 10.7 mM KCl, 5.8 mM KH2PO4, 8 mM Na2HPO4, 20 mM HEPES (free acid), 5 mM iodoacetamide, 1.6 mM EDTA, pH 7.4); PMSF, dissolved in methanol to a final concentration of 100 μM, was added and the tissue suspension was homogenized by Polytron. The homogenate was centrifuged at 18,000×g for 20 min at 4° C. and the resulting pellet was re-suspended in 10 volumes of ice-cold water. After 60 min incubation on ice, a new pellet was collected by centrifugation at 18,000×g for 20 min at 4° C. The final pellet was re-suspended in 10 volumes of buffer and stored at −20° C. On the day of the assay, tissue was thawed, centrifuged at 18,000×g for 20 min, and then re-suspended in ice-cold PBS (Dulbecco's Phosphate Buffered Saline, 138 mM NaCl, 2.67 mM KCl, 1.47 mM KH2PO4, 8.1 mM Na2HPO4, 0.9 mM CaCl2, 0.5 mM MgCl2, Invitrogen/Gibco, pH 7.4) to a final concentration of approximately 2 mg protein/mL. Protein was determined by the method of Lowry et al., J. Biol. Chem. 193: 265 (1951), using bovine serum albumin as the standard.
The binding of [^3H]MLA was measured using a modification of the methods of Davies et al., Neuropharmacol. 38: 679 (1999). [^3H]MLA (Specific Activity=25-35 Ci/mmol) was obtained from Tocris. The binding of [^3H]MLA was determined using a 2 h incubation at 21° C. Incubations were conducted in 48-well micro-titre plates and contained about 200 μg of protein per well in a final incubation volume of 300 μL. The incubation buffer was PBS and the final concentration of [^3H]MLA was 5 nM. The binding reaction was terminated by filtration of the protein containing bound ligand onto glass fiber filters (GF/B, Brandel) using a Brandel Tissue Harvester at room temperature. Filters were soaked in de-ionized water containing 0.33% polyethyleneimine to reduce non-specific binding. Each filter was washed with PBS (3×1 mL) at room temperature. Non-specific binding was determined by inclusion of 50 μM non-radioactive MLA in selected wells.
[…] Each concentration was replicated in triplicate. […] […] Pharmacol. 22: 3099-3108 (1973).

The target of the next experiment is T2, α4β2 nAChR Subtype (Rattus norvegicus, UniProt P09483+P12390).
T2 construct: The cerebral cortex was removed and placed in 20 volumes (weight:volume) of ice-cold preparative buffer; from tissue; host or cells: rat cerebral cortex membranes
T2 sequence (P09483 31-630): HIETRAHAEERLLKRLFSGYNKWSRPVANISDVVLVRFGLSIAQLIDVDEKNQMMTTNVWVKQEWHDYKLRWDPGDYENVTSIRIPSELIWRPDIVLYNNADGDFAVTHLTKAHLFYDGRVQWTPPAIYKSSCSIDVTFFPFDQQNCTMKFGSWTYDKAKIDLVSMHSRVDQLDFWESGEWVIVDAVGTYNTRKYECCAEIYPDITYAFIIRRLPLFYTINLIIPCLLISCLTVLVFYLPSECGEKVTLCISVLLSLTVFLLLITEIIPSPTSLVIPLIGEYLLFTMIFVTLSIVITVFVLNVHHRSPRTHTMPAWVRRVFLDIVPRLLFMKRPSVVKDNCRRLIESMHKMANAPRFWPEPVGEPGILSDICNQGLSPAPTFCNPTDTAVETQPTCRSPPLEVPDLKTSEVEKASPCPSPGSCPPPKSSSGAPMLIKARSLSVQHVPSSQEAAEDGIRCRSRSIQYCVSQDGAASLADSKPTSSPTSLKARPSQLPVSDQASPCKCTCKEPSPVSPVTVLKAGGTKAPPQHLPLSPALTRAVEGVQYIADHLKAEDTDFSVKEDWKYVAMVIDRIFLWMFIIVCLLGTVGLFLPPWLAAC
T2 sequence (P12390 25-500): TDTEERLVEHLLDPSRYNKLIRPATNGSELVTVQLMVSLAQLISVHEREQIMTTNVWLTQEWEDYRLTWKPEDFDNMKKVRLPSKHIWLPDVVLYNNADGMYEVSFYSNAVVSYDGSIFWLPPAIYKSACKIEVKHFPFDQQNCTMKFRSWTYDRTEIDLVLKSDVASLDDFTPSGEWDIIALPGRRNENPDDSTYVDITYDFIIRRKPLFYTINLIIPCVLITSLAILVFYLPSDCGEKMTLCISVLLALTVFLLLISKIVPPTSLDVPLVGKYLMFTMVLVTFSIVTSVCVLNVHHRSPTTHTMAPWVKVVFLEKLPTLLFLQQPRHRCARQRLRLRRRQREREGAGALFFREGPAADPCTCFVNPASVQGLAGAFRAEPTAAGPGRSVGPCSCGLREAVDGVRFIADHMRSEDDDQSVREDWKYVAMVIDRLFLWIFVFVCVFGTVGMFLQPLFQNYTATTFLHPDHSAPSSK
Nature of the experiment: Radioligand binding ([3H]nicotine) at rat α4β2 nAChR subtype, rat cerebral cortex membranes. Here is the method:
Rats (female, Sprague-Dawley), weighing 150-250 g, were maintained on a 12 h light/dark cycle and were allowed free access to water and food supplied by PMI Nutrition International, Inc. Animals were anesthetized with 70% CO2, then decapitated. Brains were removed and placed on an ice-cold platform. The cerebral cortex was removed and placed in 20 volumes (weight:volume) of ice-cold preparative buffer (137 mM NaCl, 10.7 mM KCl, 5.8 mM KH2PO4, 8 mM Na2HPO4, 20 mM HEPES (free acid), 5 mM iodoacetamide, 1.6 mM EDTA, pH 7.4); PMSF, dissolved in methanol to a final concentration of 100 μM, was added and the suspension was homogenized by Polytron. The homogenate was centrifuged at 18,000×g for 20 min at 4° C. and the resulting pellet was re-suspended in 20 volumes of ice-cold water. After 60 min incubation on ice, a new pellet was collected by centrifugation at 18,000×g for 20 min at 4° C. The final pellet was re-suspended in 10 volumes of buffer and stored at −20° C. On the day of the assay, tissue was thawed, centrifuged at 18,000×g for 20 min, and then re-suspended in ice-cold PBS (Dulbecco's Phosphate Buffered Saline, 138 mM NaCl, 2.67 mM KCl, 1.47 mM KH2PO4, 8.1 mM Na2HPO4, 0.9 mM CaCl2, 0.5 mM MgCl2, Invitrogen/Gibco, pH 7.4) to a final concentration of approximately 4 mg protein/mL. Protein was determined by the method of Lowry et al., J. Biol. Chem. 193: 265 (1951), using bovine serum albumin as the standard.
The binding of [^3H]nicotine was measured using a modification of the methods of Romano et al., Science 210: 647 (1980) and Marks et al., Mol. Pharmacol. 30: 427 (1986). The [^3H]nicotine (Specific Activity=81.5 Ci/mmol) was obtained from NEN Research Products. The binding of [^3H]nicotine was measured using a 3 h incubation at 4° C. Incubations were conducted in 48-well micro-titre plates and contained about 400 μg of protein per well in a final incubation volume of 300 μL. The incubation buffer was PBS and the final concentration of [^3H]nicotine was 5 nM. The binding reaction was terminated by filtration of the protein containing bound ligand onto glass fiber filters (GF/B, Brandel) using a Brandel Tissue Harvester at 4° C. Filters were soaked in de-ionized water containing 0.33% polyethyleneimine to reduce non-specific binding. Each filter was washed with ice-cold buffer (3×1 mL). Non-specific binding was determined by inclusion of 10 μM non-radioactive L-nicotine (Acros Organics) in selected wells.
The inhibition of [^3H]nicotine binding by test compounds was determined by including seven different concentrations of the test compound in selected wells. Each concentration was replicated in triplicate. IC50 values were estimated as the concentration of compound that inhibited 50 percent of specific [^3H]nicotine binding. Inhibition constants (Ki values), reported in nM, were calculated from the IC50 values using the method of Cheng et al., Biochem. Pharmacol. 22: 3099 (1973).

In a further experiment the target is Human α4β2 (Homo sapiens, UniProt P17787+P43681). In words: Binding at human α4β2 subtype (Table 1).
Human α4β2, sequence (P43681 29-627 limits assumed): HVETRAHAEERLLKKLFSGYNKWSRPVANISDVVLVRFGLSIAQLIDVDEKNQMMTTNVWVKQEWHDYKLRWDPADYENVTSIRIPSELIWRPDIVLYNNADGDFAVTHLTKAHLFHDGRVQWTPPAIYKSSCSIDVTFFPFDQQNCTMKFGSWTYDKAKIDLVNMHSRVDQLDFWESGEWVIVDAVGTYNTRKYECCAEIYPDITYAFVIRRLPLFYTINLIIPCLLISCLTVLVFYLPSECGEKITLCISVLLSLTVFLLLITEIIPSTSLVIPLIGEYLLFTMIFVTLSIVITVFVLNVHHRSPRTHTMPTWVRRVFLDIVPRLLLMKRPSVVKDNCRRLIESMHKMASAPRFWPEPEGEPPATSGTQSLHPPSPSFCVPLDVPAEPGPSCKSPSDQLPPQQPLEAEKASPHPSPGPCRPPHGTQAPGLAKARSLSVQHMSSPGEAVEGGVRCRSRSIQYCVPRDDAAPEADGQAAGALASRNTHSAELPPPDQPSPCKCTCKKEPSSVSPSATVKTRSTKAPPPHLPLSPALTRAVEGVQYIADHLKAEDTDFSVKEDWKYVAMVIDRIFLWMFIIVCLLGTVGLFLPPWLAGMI
Human α4β2, sequence (P17787 26-502): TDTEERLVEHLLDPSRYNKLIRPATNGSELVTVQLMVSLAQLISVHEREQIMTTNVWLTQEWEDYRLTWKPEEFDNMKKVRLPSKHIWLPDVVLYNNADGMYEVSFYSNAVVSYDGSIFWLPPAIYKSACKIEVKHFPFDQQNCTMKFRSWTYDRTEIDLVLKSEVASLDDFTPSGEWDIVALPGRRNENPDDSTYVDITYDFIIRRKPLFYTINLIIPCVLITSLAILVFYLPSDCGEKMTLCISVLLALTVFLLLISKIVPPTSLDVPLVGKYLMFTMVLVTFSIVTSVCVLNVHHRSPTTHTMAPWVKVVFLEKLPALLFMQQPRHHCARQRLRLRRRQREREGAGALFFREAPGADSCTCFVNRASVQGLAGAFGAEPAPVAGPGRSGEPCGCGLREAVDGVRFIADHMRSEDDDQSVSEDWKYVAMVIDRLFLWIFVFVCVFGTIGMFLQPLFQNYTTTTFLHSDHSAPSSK
The nature of experiment [1]: NOR (novel object recognition) task in rats. It is filed as in vivo, rat. Conditions: treated orally, 0.03 mg/kg. As for the experimental part:
FIG. 1 is a chart showing the results of a study on object recognition in rats treated orally with (1S,5S)-3-(5-bromofuran-2-ylcarbonyl)-3,6-diazabicyclo[3.2.1]octane. The results are shown as a function of recognition index (%) versus dose (mg/kg).
Certain exemplified compounds were assessed in the NOR (novel object recognition) task. Thus, (1S,5S)-3-(5-bromofuran-2-ylcarbonyl)-3,6-diazabicyclo[3.2.1]octane (FIG. 1) was active in NOR in rats, at 0.03 mg/kg. This provides evidence of the efficacy (and potency) of the compounds of the present invention in treating cognitive deficits, attentional disorders and dementias, and the potential of these compounds for human therapy.

[2] abbreviates: [3H]nicotine 5 nM, rat cortex, read-out: Rat α4β2 Ki.

Read-outs that look alike come from different tables or passages of the source. A value given as a limit tells only on which side of the number the result lay.

T1 sequence (Q05941 23-502): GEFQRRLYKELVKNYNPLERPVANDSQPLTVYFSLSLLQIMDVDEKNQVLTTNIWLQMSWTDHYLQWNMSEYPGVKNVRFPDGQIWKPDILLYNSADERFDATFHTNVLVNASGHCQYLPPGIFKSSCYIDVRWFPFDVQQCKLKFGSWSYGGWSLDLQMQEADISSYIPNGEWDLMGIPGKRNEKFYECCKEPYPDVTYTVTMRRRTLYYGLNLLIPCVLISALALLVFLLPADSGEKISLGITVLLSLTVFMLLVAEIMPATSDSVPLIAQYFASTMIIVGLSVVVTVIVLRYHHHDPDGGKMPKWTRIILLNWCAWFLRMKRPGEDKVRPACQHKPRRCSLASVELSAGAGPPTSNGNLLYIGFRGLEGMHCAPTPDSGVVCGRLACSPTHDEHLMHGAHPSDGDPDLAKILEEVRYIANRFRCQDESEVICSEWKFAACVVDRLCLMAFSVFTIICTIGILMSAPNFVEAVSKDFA

Take `Cc1nocc1C(=O)N1C[C@H]2CN[C@H](C2)C1`: on α7 nAChR Subtype, the inhibition at 5 µM was at most 50%. For the same compound, the Ki on α4β2 nAChR Subtype is 56.7 nM; at Human α4β2 (read-out: Human α4β2 Ki), 54.9 nM.
In the same order, the values of `O=C(c1ccc(Br)o1)N1CC2CNC(C2)C1` (stereo not shown) are at most 50%, 14.5 nM and 0.8 nM.
In the same order, the values of `O=C(c1ccco1)N1C[C@H]2CN[C@H](C2)C1` are at most 50%, 10.8 nM and 13.1 nM.
Regarding `CC(C)c1cc(C(=O)N2C[C@@H]3CN[C@@H](C3)C2)on1`, the inhibition at 5 µM on α7 nAChR Subtype is at most 50%. In addition, the figures for the Ki on α4β2 nAChR Subtype (setting [2]) and on Human α4β2 (read-out: Human α4β2 Ki) were 470 nM and 724 nM, respectively.
For `O=C(c1ccc(Br)o1)N1C[C@@H]2CN[C@@H](C2)C1` [(1S,5S)-3-(5-bromofuran-2-ylcarbonyl)-3,6-diazabicyclo[3.2.1]octane], in experiment [1], the “activity in NOR (recognition index)” value is “active”.
Regarding `COc1cc(C(=O)N2C[C@@H]3CN[C@@H](C3)C2)on1`, the inhibition at 5 µM at α7 nAChR Subtype is at most 50%. Further, the Ki worked out at 367 nM on α4β2 nAChR Subtype (setting [2]) and 95.4 nM on Human α4β2.
With `O=C(c1ccno1)N1C[C@@H]2CN[C@@H](C2)C1`, the inhibition at 5 µM on α7 nAChR Subtype is at most 50%. For the same compound, the Ki amounted to 26.8 nM on α4β2 nAChR Subtype and 34.5 nM on Human α4β2 (read-out: Human α4β2 Ki).
Take `Cc1cc(C(=O)N2C[C@@H]3CN[C@@H](C3)C2)on1`: the inhibition at 5 µM on α7 nAChR Subtype is at most 50%. For the same compound, the Ki on α4β2 nAChR Subtype (setting [2]) was determined as 104 nM; on Human α4β2 it was 76.1 nM.
As for `O=C(c1ccco1)N1CC2CNC(C2)C1` (stereo not shown), the inhibition at 5 µM on α7 nAChR Subtype is at most 50%. Further, the Ki at α4β2 nAChR Subtype worked out at 19.2 nM; at Human α4β2 (read-out: Human α4β2 Ki), 23.9 nM.
In the case of `O=C(c1cc(Br)no1)N1CC2CNCC1C2` (stereo not shown), the inhibition at 5 µM at α7 nAChR Subtype was at most 50%. Further, the Ki on α4β2 nAChR Subtype (setting [2]) was 172 nM; at Human α4β2 it was 14.3 nM.

As a reminder, the Ki is the dissociation constant of the complex between target and ligand, obtained from inhibition or displacement.

The values are drawn from patent publication US20100144700A1, “HETEROCYCLIC-CARBONYL-DIAZABICYCLOALKANES AS MODULATORS OF THE NEURONAL NICOTINIC ACETYLCHOLINE ALPHA 4 BETA 2, SUBTYPE RECEPTOR FOR THE TREATMENT OF CNS RELATED DISORDERS” (TARGACEPT, INC., priority 2007, published 2010).
